Columns and labels:
Experiment in all cases: CelltiterGlo viability cell assay
Format in all cases: cell-based
HCC1806 = details: up to 30 μM; days 3 and 6; Prdm9 expressing line
Procedure: (§1) Supplementary Figure 13. […] Viability of
(§2) (a) Multiple Myeloma lines and (b) Breast Cancer cell lines following 3 or 6 days treatment with […]
(§3) manufacturer’s instructions as described in the Supplementary methods. Data are normalized to DMSO control. N=3 biological replicates, +/- SEM. Source data are provided as a Source Data […]
(§4) CelltiterGlo viability cell assay
(§5) Cells were seeded in 96 well plates at per-well densities of 10000 (MDA-MB436, ATCC-HTB130), 15000 (8226, kind gift from Rodger Tiedemann, Princess Margaret Cancer Centre), […]
(§6) kind gift from Rodger Tiedemann, Princess Margaret Cancer Centre) and 50000 (CAL851, kind gift from Mathieu Lupien, Princess Margaret Cancer Centre) and were treated at increasing concentrations of compounds ranging from 0.01 μM to 30 μM and assessed for proliferation using CelltiterGlo (Promega) following manufacturer’s instructions, as readout on days 3 and 6 as indicated. All cell lines were mycoplasma negative, as determined by MycoAlert™ Mycoplasma Detection Kit(Lonza). […]

MDA-MB-436 = details: up to 30 μM; days 3 and 6; matched control line
Procedure: as §1, §2, §3, §4, §5, §6

SKMM2 = details: up to 30 μM; days 3 and 6; Prdm9 expressing line
Procedure: as §1, §2, §3, §4, §5, §6

Measured: Effect on proliferation (in words)

COc1cc(OC)cc(-c2noc(N3CCN(C)C4(CCN(c5ccccc5)CC4)C3)n2)c1 [MRK-740-NC]
did not have any significant effect: all assays above
